Reference: patent US20230073834A1, “SUBNORMOTHERMIC MACHINE PERFUSION OF ORGANS WITH CARBON MONOXIDE AND OXYGEN” (priority 2021, published 2023)

Columns and labels:
porcine DCD kidneys = assay: Ex vivo pulsatile perfusion of porcine DCD kidneys with CORM-401 in UW solution, then blood reperfusion; design: species or system large male Landrace pig
Procedure: (§1) Methods: To stimulate donation after circulatory death condition, kidneys from large male Landrace pig were retrieved after 1-hour warm ischemia in situ by cross-clamping the renal pedicle. […] Kidneys were then reperfused with normothermic isogeneic porcine blood through oxygenated pulsatile perfusion for 10 hours. Urine was collected, vascular flow was assessed during reperfusion and histopathology was assessed after 10 hours of reperfusion. Sections were stained with H&E (not shown), TUNEL (FIG. 4A) and MSB (FIG. 4B) to quantify ATN (FIG. 4C), Apoptosis (brown spot), Hemorrhage (yellow stain), and neutrophil gelatinase-associated lipocalin (NGAL) to quantify kidney injury (FIG. 4D).

Toll-like receptor 6 = assay: Toll-like receptor suppression in CORM-401 perfused porcine DCD kidneys; design: species or system large male Landrace pig; conditions: 200 μM CORM-401 perfused kidneys
Procedure: as §1

Toll-like receptor 4 = assay: as above; design: species or system large male Landrace pig; conditions: 200 μM CORM-401 perfused kidneys
Procedure: as §1

Toll-like receptor 2 = assay: as above; design: species or system large male Landrace pig; conditions: 200 μM CORM-401 perfused kidneys
Procedure: as §1

Pig kidneys = assay: Ex vivo subnormothermic (22° C.) pulsatile perfusion of pig kidneys with HBOC-201 versus blood or static cold storage
Procedure: Methods: Pig kidneys (n=5) were procured after 30 minutes of warm in situ ischemia by cross-clamping the renal arteries. Organs were flushed with histidine tryptophan ketoglutarate solution and subjected to static cold storage or pulsatile perfusion with an RM3 pump at 22° C. for 4 hours with HBOC-201 and blood. Thereafter, kidneys were reperfused with normothermic (37° C.) oxygenated blood for 4 hours. Blood and urine were subjected to biochemical analysis. Total urine output, urinary protein, albumin/creatinine ratio, flow rate, resistance were measured. Acute tubular necrosis, apoptosis, urinary kidney damage markers, neutrophil gelatinase-associated lipocalin 1, and interleukin 6 were also assessed.

[1] = 200 μM, 4 h perfusion at 4° C. in UW solution, 10 h blood reperfusion, vs inactive CORM-401
[2] = 22° C. 4 hours perfusion, 4 hours reperfusion, as with blood
[3] = 22° C. 4 hours perfusion, 4 hours reperfusion, versus cold storage

Row | Molecule | intrarenal hemorrhage and vascular dotting during reperfusion (porcine DCD kidneys; 200 μM, 4 h perfusion at 4° C. in UW solution, 10 h blood reperfusion) | ATN (acute tubular necrosis) in histopathologic sections (porcine DCD kidneys; [1]) | dUTP nick end labeling staining in histopathologic sections (porcine DCD kidneys; [1]) | kidney damage markers (kidney damage marker-1 and neutrophil gelatinase-associated lipocalin) (porcine DCD kidneys; [1]) | urinary protein excretion (porcine DCD kidneys; 200 μM, 4 h perfusion at 4° C. in University of Wisconsin solution, 10 h normothermic blood reperfusion, vs inactive CORM-401) | injury in porcine DCD kidneys (porcine DCD kidneys; 1 h warm ischemia, perfusion with UW solution, 10 h blood reperfusion at 37° C.) | Toll-like receptor 6 suppression (anti-inflammatory action) (Toll-like receptor 6) | Toll-like receptor 4 suppression (anti-inflammatory action) (Toll-like receptor 4) | Toll-like receptor 2 suppression (anti-inflammatory action) (Toll-like receptor 2) | renal blood flow and function upon reperfusion (Pig kidneys; 22° C. 4 hours perfusion, 4 hours reperfusion with 37° C. oxygenated blood, compared with blood-treated kidneys) | IL6 levels (Pig kidneys; [2]) | Urinary damage markers (Pig kidneys; [2]) | TUNEL staining (apoptosis) (Pig kidneys; [3]) | acute tubular necrosis scores (Pig kidneys; [3]) | TUNEL staining (apoptosis) (Pig kidneys; 22° C. 4 hours perfusion, 4 hours reperfusion, versus cold storage, listed as HBOC) | tissues oxygen saturation (Pig kidneys; 22° C., 4 hours perfusion, compared with blood)
1 | CN(CC(=O)O)C(=S)[S-].[C-]#[O+].[C-]#[O+].[C-]#[O+].[C-]#[O+].[Mn] [CORM-401] | prevented | reduced | reduced | attenuated | reduced | reduced injury | suppressing | suppressing | suppressing | – | – | – | – | – | – | –
2 | HBOC-201: acellular hemoglobin-based oxygen carrier; blood free oxygen carrier (Hemopure) | – | – | – | – | – | – | – | – | – | similar | similarly reduced | similarly reduced | vastly reduced | vastly reduced | reduces apoptosis | equivalent to blood
